# Experimental data: PMC11058261, “Nucleoside Phosphorylases make N7-xanthosine” (Nature Communications, 2024)
# Key:
# [1] = molecular target: T1, human purine NP (Homo sapiens, UniProt P00491); assay: HPLC of glycosylation products; type: biochemical; conditions: 500 µM X, 500 µM ribose 1-phosphate; 1 g/L enzyme; pH 9 or pH 7; 50 °C
# T1 construct: gene PNP
# T1 sequence (P00491 1-289): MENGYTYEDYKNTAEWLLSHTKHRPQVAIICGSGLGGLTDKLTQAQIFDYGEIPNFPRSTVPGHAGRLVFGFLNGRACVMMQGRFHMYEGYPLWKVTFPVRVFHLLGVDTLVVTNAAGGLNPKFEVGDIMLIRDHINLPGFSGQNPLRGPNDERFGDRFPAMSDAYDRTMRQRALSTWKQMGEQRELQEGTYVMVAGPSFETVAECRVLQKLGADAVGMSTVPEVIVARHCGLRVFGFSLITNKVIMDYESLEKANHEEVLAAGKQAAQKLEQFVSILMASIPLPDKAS
# [2] = molecular target: T2, GtPyNP (pyrimidine NP from G. thermoglucosidasius) (Parageobacillus thermoglucosidasius, UniProt A0AAN0YQC1); assay: HPLC of glycosylation products; type: biochemical; conditions: 500 µM X, 500 µM ribose 1-phosphate; 1 g/L enzyme; pH 9 or pH 7; 50 °C
# T2 construct: gene deoA
# T2 sequence (A0AAN0YQC1 entry or part of it): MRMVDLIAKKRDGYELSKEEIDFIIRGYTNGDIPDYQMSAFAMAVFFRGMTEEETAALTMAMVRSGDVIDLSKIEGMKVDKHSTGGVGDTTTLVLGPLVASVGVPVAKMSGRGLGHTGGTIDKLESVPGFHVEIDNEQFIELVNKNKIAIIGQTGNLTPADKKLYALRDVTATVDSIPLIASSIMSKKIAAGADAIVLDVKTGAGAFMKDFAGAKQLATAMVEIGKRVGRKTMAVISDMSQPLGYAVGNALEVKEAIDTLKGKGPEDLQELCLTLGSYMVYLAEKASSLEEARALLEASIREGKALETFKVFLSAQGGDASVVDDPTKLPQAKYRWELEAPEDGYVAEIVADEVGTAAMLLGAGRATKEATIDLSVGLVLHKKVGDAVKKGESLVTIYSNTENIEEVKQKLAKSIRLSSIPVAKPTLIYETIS
SMILES,HPLC of glycosylation products [1],HPLC of glycosylation products [2]
"O=P(O)(O)O[C@H]1O[C@H](CO)[C@@H](O)[C@H]1O [Rib1P, ribose 1-phosphate]",mammalian NPs (human purine NP),purine and pyrimidine NP from Geobacillus thermoglucosidasius
"O=c1[nH]c(=O)c2[nH]cnc2[nH]1 [X, xanthine]",mammalian NPs (human purine NP),purine and pyrimidine NP from Geobacillus thermoglucosidasius
